Key:
[1] = target: T1, catalytic domain (JH1, amino acids 826-1132) of human JAK2 (Homo sapiens, UniProt O60674); assay: JAK2 LanthaScreen JH1 Binding Assay; conditions: JAK2 JH1 (1.5 nM), 50 nM fluorescent JAK2-JH1 tracer, 2 hours at 25° C.; read-out: JH1 BIND
T1 construct: catalytic domain (JH1, amino acids 826-1132) of human JAK2; FLAG (N); purchased Carna Biosciences 08-445-20N; host or cells: baculovirus expression system
Outline: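 FLAG-tagged, biotinylated JAK2 JH1 (aa 826-1132, baculovirus-expressed; 1.5 nM) incubated 2 h at 25° C with compounds, 50 nM fluorescent tracer and 0.5 nM Streptavidin-Tb in Tris pH 7.5 buffer with MgCl2, Brij-35, BSA, EGTA, glycerol, DTT. Nonspecific binding defined with 2 mM ATP; TR-FRET IC50 from four-parameter fit.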

[2] = target: T2, pseudo-kinase domain (JH2, amino-acids 536-812 with 3 surface mutations W659A, W777A, F794H) of human Wild Type JAK2 (Homo sapiens, UniProt O60674, F794H/W659A/W777A); assay: JAK2 LanthaScreen JH2-WT Binding Assay; conditions: JAK2 JH2-WT (0.145 nM), 50 nM Fluorescent JAK2-JH2 Tracer, 1 hour at 25° C.; read-out: JH2 BIND WT
T2 construct: pseudo-kinase domain (JH2, amino-acids 536-812 with 3 surface mutations W659A, W777A, F794H); His (C); Avi (biotinylated) (C); purchased BPS Bioscience 79463; host or cells: baculovirus expression system
Outline: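 TR-FRET tracer displacement: 0.145 nM biotinylated JH2 protein, 50 nM fluorescent tracer, 0.25 nM streptavidin-Tb, compound dilution series; 50 mM Tris pH 7.5, 10 mM MgCl2, 5 mM DTT; 1 h, 25° C. Non-specific binding with 2 mM ATP. IC50 by 4-parameter fit.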

[3] = target: T3, pseudo-kinase domain (JH2, amino-acids 536-812 with 3 surface mutations W659A, W777A, F794H) of human V617F mutant JAK2 (Homo sapiens, UniProt O60674, F794H/V617F/W659A/W777A); assay: JAK2 LanthaScreen JH2-V617F Binding Assay; conditions: JAK2 JH2-V617F (0.26 nM), 50 nM Fluorescent JAK2-JH2 Tracer, 1 hour at 25° C.; read-out: JH2 BIND V617F
T3 construct: pseudo-kinase domain (JH2, amino-acids 536-812 with 3 surface mutations W659A, W777A, F794H); His (C); Avi (biotinylated) (C); purchased BPS Bioscience 79498; host or cells: baculovirus expression system
Outline: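 Biotinylated His-Avi-tagged JH2 protein was baculovirus-expressed and used at 0.26 nM. It was incubated with compound, 50 nM fluorescent JH2 tracer and 0.25 nM streptavidin-Tb for 1 h at 25 °C in pH 7.5 Tris buffer with MgCl2, BSA, DTT. Non-specific binding was defined with 2 mM ATP. IC50 came from four-parameter fits of TR-FRET signal.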

T2 sequence (O60674 536-812 W659A/W777A/F794H): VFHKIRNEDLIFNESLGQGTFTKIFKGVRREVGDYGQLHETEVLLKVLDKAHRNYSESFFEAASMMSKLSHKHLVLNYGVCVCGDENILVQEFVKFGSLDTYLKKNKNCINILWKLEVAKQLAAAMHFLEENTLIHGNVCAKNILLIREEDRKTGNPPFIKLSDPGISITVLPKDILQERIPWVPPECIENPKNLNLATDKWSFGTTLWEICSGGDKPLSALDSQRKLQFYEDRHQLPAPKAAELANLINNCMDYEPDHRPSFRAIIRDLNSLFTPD
T1 sequence (O60674 826-1132): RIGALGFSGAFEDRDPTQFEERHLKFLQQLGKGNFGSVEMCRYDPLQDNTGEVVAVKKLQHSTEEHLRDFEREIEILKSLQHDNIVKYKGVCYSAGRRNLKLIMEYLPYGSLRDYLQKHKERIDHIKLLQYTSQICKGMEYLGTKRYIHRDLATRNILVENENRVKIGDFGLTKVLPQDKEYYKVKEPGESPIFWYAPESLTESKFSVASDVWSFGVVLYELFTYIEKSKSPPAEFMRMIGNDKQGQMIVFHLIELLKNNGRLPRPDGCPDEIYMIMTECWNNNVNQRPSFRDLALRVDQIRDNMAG
T3 sequence (O60674 536-812 V617F/W659A/W777A/F794H): as the sequence (O60674 536-812 W659A/W777A/F794H) above, with V82F counted along it

Structure (SMILES): CC(C)n1c(=O)n(C)c2cnc3[nH]c(-c4cnn(CC(C)(C)O)c4)c(-c4ccc5ncsc5c4)c3c21 [Example 78, 8-(Benzo[d]thiazol-6-yl)-7-(1-(2-hydroxy-2-methylpropyl)-1H-pyrazol-4-yl)-1-isopropyl-3-methyl-3,6-dihydroimidazo[4,5-d]pyrrolo[2,3-b]pyridin-2(1H)-one]
- IC50 [1]: > 1000 nM
- IC50 [2]: 10 to 100 nM
- IC50 [3]: 10 to 100 nM

Structure (SMILES): CC(C)n1c(=O)n(C)c2cnc3[nH]c(-c4cnn(CC(C)(C)O)c4)c(-c4ccc5c(c4)CCCO5)c3c21 [Example 79, 8-(Chroman-6-yl)-7-(1-(2-hydroxy-2-methylpropyl)-1H-pyrazol-4-yl)-1-isopropyl-3-methyl-3,6-dihydroimidazo[4,5-d]pyrrolo[2,3-b]pyridin-2(1H)-one]
- IC50 [1]: 100 to 500 nM
- IC50 [2]: ≤ 10 nM
- IC50 [3]: 10 to 100 nM

Structure (SMILES): CC(C)n1c(=O)n(C)c2cnc3[nH]c(-c4cnn(CC(C)(C)O)c4)c(-c4cc5cnc(N6CCNCC6)cc5s4)c3c21 [Example 80, 7-(1-(2-Hydroxy-2-methylpropyl)-1H-pyrazol-4-yl)-1-isopropyl-3-methyl-8-(6-(piperazin-1-yl)thieno[3,2-c]pyridin-2-yl)-3,6-dihydroimidazo[4,5-d]pyrrolo[2,3-b]pyridin-2(1H)-one]
- IC50 [1]: 100 to 500 nM
- IC50 [2]: ≤ 10 nM
- IC50 [3]: ≤ 10 nM

Structure (SMILES): CC(=O)N1CCN(c2cc3sc(-c4c(-c5cnn(CC(C)(C)O)c5)[nH]c5ncc6c(c45)n(C(C)C)c(=O)n6C)cc3cn2)CC1 [Example 81, 8-(6-(4-Acetylpiperazin-1-yl)thieno[3,2-c]pyridin-2-yl)-7-(1-(2-hydroxy-2-methylpropyl)-1H-pyrazol-4-yl)-1-isopropyl-3-methyl-3,6-dihydroimidazo[4,5-d]pyrrolo[2,3-b]pyridin-2(1H)-one]
- IC50 [1]: > 1000 nM
- IC50 [2]: ≤ 10 nM
- IC50 [3]: 10 to 100 nM

Structure (SMILES): CC(C)n1c(=O)n(C)c2cnc3[nH]c(-c4cnn(CC(C)(C)O)c4)c(-c4cc5c(s4)CCNC5)c3c21 [Example 82, 7-(1-(2-Hydroxy-2-methylpropyl)-1H-pyrazol-4-yl)-1-isopropyl-3-methyl-8-(4,5,6,7-tetrahydrothieno[3,2-c]pyridin-2-yl)-3,6-dihydroimidazo[4,5-d]pyrrolo[2,3-b]pyridin-2(1H)-one]
- IC50 [1]: > 1000 nM
- IC50 [2]: 100 to 500 nM
- IC50 [3]: 500 to 1000 nM

Structure (SMILES): CC(C)n1c(=O)n(C)c2cnc3[nH]c(-c4cnn(CC(C)(C)O)c4)c(-c4cc5c(s4)CCN(S(C)(=O)=O)C5)c3c21 [Example 83, 7-(1-(2-Hydroxy-2-methylpropyl)-1H-pyrazol-4-yl)-1-isopropyl-3-methyl-8-(5-(methylsulfonyl)-4,5,6,7-tetrahydrothieno[3,2-c]pyridin-2-yl)-3,6-dihydroimidazo[4,5-d]pyrrolo[2,3-b]pyridin-2(1H)-one]
- IC50 [1]: > 1000 nM
- IC50 [2]: ≤ 10 nM
- IC50 [3]: 10 to 100 nM

Structure (SMILES): Cc1cn2cc(-c3c(-c4cnn(CC(C)(C)O)c4)[nH]c4ncc5c(c34)n(C(C)C)c(=O)n5C)cc2cn1 [Example 84, 7-(1-(2-Hydroxy-2-methylpropyl)-1H-pyrazol-4-yl)-1-isopropyl-3-methyl-8-(3-methylpyrrolo[1,2-a]pyrazin-7-yl)-3,6-dihydroimidazo[4,5-d]pyrrolo[2,3-b]pyridin-2(1H)-one]
- IC50 [1]: > 1000 nM
- IC50 [2]: ≤ 10 nM
- IC50 [3]: ≤ 10 nM

Structure (SMILES): CC(C)n1c(=O)n(C)c2cnc3[nH]c(-c4cnn(CC(C)(C)O)c4)c(-c4ccn5cncc5c4)c3c21 [Example 85, 7-(1-(2-Hydroxy-2-methylpropyl)-1H-pyrazol-4-yl)-8-(imidazo[1,5-a]pyridin-7-yl)-1-isopropyl-3-methyl-3,6-dihydroimidazo[4,5-d]pyrrolo[2,3-b]pyridin-2(1H)-one]
- IC50 [1]: > 1000 nM
- IC50 [2]: ≤ 10 nM
- IC50 [3]: 10 to 100 nM

Structure (SMILES): CC(C)n1c(=O)n(C)c2cnc3[nH]c(-c4cnn(CC(C)(C)O)c4)c(-c4ccc5c(c4)CCC5O)c3c21 (stereo not drawn) [Example 86, 8-(1-Hydroxy-2,3-dihydro-1H-inden-5-yl)-7-(1-(2-hydroxy-2-methylpropyl)-1H-pyrazol-4-yl)-1-isopropyl-3-methyl-3,6-dihydroimidazo[4,5-d]pyrrolo[2,3-b]pyridin-2(1H)-one]
- IC50 [1]: > 1000 nM
- IC50 [2]: ≤ 10 nM
- IC50 [3]: 10 to 100 nM

Structure (SMILES): CC(C)n1c(=O)n(C)c2cnc3[nH]c(-c4cnn(CC(C)(C)O)c4)c(-c4ccc(COC5CCOCC5)cc4)c3c21 [Example 87, 7-(1-(2-Hydroxy-2-methylpropyl)-1H-pyrazol-4-yl)-1-isopropyl-3-methyl-8-(4-(((tetrahydro-2H-pyran-4-yl)oxy)methyl)phenyl)-3,6-dihydroimidazo[4,5-d]pyrrolo[2,3-b]pyridin-2(1H)-one]
- IC50 [1]: > 1000 nM
- IC50 [2]: ≤ 10 nM
- IC50 [3]: ≤ 10 nM

Structure (SMILES): CC(C)n1c(=O)n(C)c2cnc3[nH]c(-c4cnn(CC(C)(C)O)c4)c(C45CCNCC4C5)c3c21 (stereo not drawn) [Example 88, 8-(3-Azabicyclo[4.1.0]heptan-6-yl)-7-(1-(2-hydroxy-2-methylpropyl)-1H-pyrazol-4-yl)-1-isopropyl-3-methyl-3,6-dihydroimidazo[4,5-d]pyrrolo[2,3-b]pyridin-2(1H)-one]
- IC50 [1]: > 1000 nM
- IC50 [2]: ≤ 10 nM
- IC50 [3]: 10 to 100 nM

Structure (SMILES): CN(C)C(=O)c1ccc(-c2[nH]c3ncc4c(c3c2-c2ccc3c(cnn3C)c2)n(C2CCCC2)c(=O)n4C)cc1 [Example 89, 4-(1-Cyclopentyl-3-methyl-8-(1-methyl-1H-indazol-5-yl)-2-oxo-1,2,3,6-tetrahydroimidazo [4,5-d]pyrrolo[2,3-b]pyridin-7-yl)-N,N-dimethylbenzamide]
- IC50 [1]: 500 to 1000 nM
- IC50 [2]: ≤ 10 nM
- IC50 [3]: ≤ 10 nM

Structure (SMILES): Cn1ncc2cc(-c3c(-c4cnn5cccnc45)[nH]c4ncc5c(c34)n(C3CCOCC3)c(=O)n5C)ccc21 [Example 90, 3-Methyl-8-(1-methyl-1H-indazol-5-yl)-7-(pyrazolo[1,5-a]pyrimidin-3-yl)-1-(tetrahydro-2H-pyran-4-yl)-3,6-dihydroimidazo[4,5-d]pyrrolo[2,3-b]pyridin-2(1H)-one]
- IC50 [1]: > 1000 nM
- IC50 [2]: ≤ 10 nM
- IC50 [3]: ≤ 10 nM

Structure (SMILES): COc1nn(C)cc1-c1[nH]c2ncc3c(c2c1-c1ccc2c(cnn2C)c1)n(C1CCOCC1)c(=O)n3C [Example 91, 7-(3-methoxy-1-methyl-1H-pyrazol-4-yl)-3-methyl-8-(1-methyl-1H-indazol-5-yl)-1-(tetrahydro-2H-pyran-4-yl)-3,6-dihydroimidazo[4,5-d]pyrrolo[2,3-b]pyridin-2(1H)-one]
- IC50 [1]: > 1000 nM
- IC50 [2]: ≤ 10 nM
- IC50 [3]: ≤ 10 nM

Structure (SMILES): Cn1ncc2cc(-c3c(-c4cnn5c4CCC5)[nH]c4ncc5c(c34)n(C3CCOCC3)c(=O)n5C)ccc21 [Example 92, 7-(5,6-Dihydro-4H-pyrrolo[1,2-b]pyrazol-3-yl)-3-methyl-8-(1-methyl-1H-indazol-5-yl)-1-(tetrahydro-2H-pyran-4-yl)-3,6-dihydroimidazo[4,5-d]pyrrolo[2,3-b]pyridin-2(1H)-one]
- IC50 [1]: > 1000 nM
- IC50 [2]: ≤ 10 nM
- IC50 [3]: ≤ 10 nM

Structure (SMILES): Cn1ncc2cc(-c3c(C(O)C4CC4)[nH]c4ncc5c(c34)n(C3CCOCC3)c(=O)n5C)ccc21 (stereo not drawn) [Example 95, 7-(Cyclopropyl(hydroxy)methyl)-3-methyl-8-(1-methyl-1H-indazol-5-yl)-1-(tetrahydro-2H-pyran-4-yl)-3,6-dihydroimidazo[4,5-d]pyrrolo[2,3-b]pyridin-2(1H)-one]
- IC50 [1]: > 1000 nM
- IC50 [2]: ≤ 10 nM
- IC50 [3]: 10 to 100 nM
